This is an account of results in PubChem BioAssay AID330 (DTP/NCI, 2004).

The subject of the experiment is P388 leukemia ip, CD2F1 mice, survival T/C. Briefly: NCI In Vivo Anticancer Drug Screen. Data for tumor model P388 Leukemia (intraperitoneal) in CD2F1 (CDF1) mice. Conditions: endpoint: median survival time, higher = longer survival. The method in brief: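 Mice carrying the transplanted tumor received test compound or vehicle. Survival was recorded in each group, and the value is the treated-group measurement divided by that of the vehicle-treated control group.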

Setting [1] is: dose: 60.0 mg/kg/injection, schedule: Q01DX005 (ip), vehicle: Klucel (hydroxypropylcellulose) (HPC).
Where [2] appears, read: dose: 120.0 mg/kg/injection, schedule: Q01DX005 (ip), vehicle: Klucel (hydroxypropylcellulose) (HPC).
The mark [3] stands for this setting: dose: 240.0 mg/kg/injection, schedule: Q01DX005 (ip), vehicle: Klucel (hydroxypropylcellulose) (HPC).
Setting [4] is: dose: 6.25 mg/kg/injection, schedule: Q01DX009 (ip), vehicle: saline.
[5] abbreviates: dose: 12.5 mg/kg/injection, schedule: Q01DX009 (ip), vehicle: saline.
Setting [6] is: dose: 100.0 mg/kg/injection, schedule: Q04DX002 (ip), vehicle: saline with Tween-80.
[7] abbreviates: dose: 50.0 mg/kg/injection, schedule: Q01DX009 (ip), vehicle: saline with Tween-80.
The mark [8] stands for this setting: dose: 100.0 mg/kg/injection, schedule: Q01DX009 (ip), vehicle: saline with Tween-80.
Where [9] appears, read: dose: 200.0 mg/kg/injection, schedule: Q01DX009 (ip), vehicle: saline with Tween-80.
The mark [10] stands for this setting: dose: 12.5 mg/kg/injection, schedule: Q01DX005 (ip), vehicle: saline with Tween-80.
[11] abbreviates: dose: 50.0 mg/kg/injection, schedule: Q01DX005 (ip), vehicle: saline with Tween-80.
The mark [12] stands for this setting: dose: 100.0 mg/kg/injection, schedule: Q01DX005 (ip), vehicle: saline with Tween-80.
The mark [13] stands for this setting: dose: 50.0 mg/kg/injection, schedule: Q01DX005 (ip), vehicle: Klucel (hydroxypropylcellulose) (HPC).
[14] abbreviates: dose: 100.0 mg/kg/injection, schedule: Q01DX005 (ip), vehicle: Klucel (hydroxypropylcellulose) (HPC).
Where [15] appears, read: dose: 200.0 mg/kg/injection, schedule: Q01DX005 (ip), vehicle: Klucel (hydroxypropylcellulose) (HPC).

Where “and” joins values, the source holds several entries; their conditions need not be identical. Equal entries are not always repeated. Toxic doses and inconclusive results are not listed.

Take `COc1ccc(C2=NOP(c3ccccc3)(c3ccccc3)(c3ccccc3)C2)cc1`: the T/C reads like this: (dose: 1.56 mg/kg/injection, schedule: Q01DX009 (ip), vehicle: water) 102 % of control; (dose: 3.13 mg/kg/injection, schedule: Q01DX009 (ip), vehicle: water) 106 % of control; (dose: 6.25 mg/kg/injection, schedule: Q01DX009 (ip), vehicle: water) 90 % of control; (dose: 12.5 mg/kg/injection, schedule: Q01DX009 (ip), vehicle: water) 107 % of control; (dose: 25.0 mg/kg/injection, schedule: Q01DX009 (ip), vehicle: other) 99 % of control; (dose: 25.0 mg/kg/injection, schedule: Q01DX009 (ip), vehicle: water) 104 % of control. Also, the T/C was 105 % of control (dose: 50.0 mg/kg/injection, schedule: Q01DX009 (ip), vehicle: Klucel (hydroxypropylcellulose) (HPC)); 101 % of control (dose: 100.0 mg/kg/injection, schedule: Q01DX009 (ip), vehicle: Klucel (hydroxypropylcellulose) (HPC)); 101 % of control (dose: 200.0 mg/kg/injection, schedule: Q01DX009 (ip), vehicle: Klucel (hydroxypropylcellulose) (HPC)).
For `CC(NC(CCCN=C(N)N)C(=O)O)C(=O)O` (centres undefined), the T/C was 92 % of control (dose: 60.0 mg/kg/injection, schedule: Q01DX005 (ip), vehicle: saline); 100 % of control (dose: 120.0 mg/kg/injection, schedule: Q01DX005 (ip), vehicle: saline); 100 % of control (dose: 240.0 mg/kg/injection, schedule: Q01DX005 (ip), vehicle: saline).
With `CC1(C)SC(C2NC(=O)C(c3ccccc3)NC2=O)NC1C(=O)O` (centres undefined), the T/C runs as follows: under setting [1], 105 % of control; under setting [2], 99 % of control; under setting [3], 101 % of control.
As to `CN(C)C(CCC(=O)O)C(=O)O` (centres undefined), the T/C was 102 % of control (dose: 50.0 mg/kg/injection, schedule: Q01DX005 (ip), vehicle: saline); 97 % of control (dose: 100.0 mg/kg/injection, schedule: Q01DX005 (ip), vehicle: saline); 98 % of control (dose: 200.0 mg/kg/injection, schedule: Q01DX005 (ip), vehicle: saline).
As for `O=C(c1ccccc1)c1ccc[n+](Cc2c(Cl)cccc2Cl)c1`, the T/C was 101 % of control and 98 % of control under setting [4]; 102 % of control and 105 % of control under setting [5]; 105 % of control and 111 % of control and 123 % of control (dose: 25.0 mg/kg/injection, schedule: Q01DX009 (ip), vehicle: saline); 108 % of control and 114 % of control and 117 % of control (dose: 50.0 mg/kg/injection, schedule: Q01DX009 (ip), vehicle: saline).
Regarding `CSCC1(C)OC(c2ccccc2)=Nc2ccccc21` (centres undefined), the T/C reads like this: under setting [6], 97 % of control; (dose: 200.0 mg/kg/injection, schedule: Q04DX002 (ip), vehicle: saline with Tween-80) 98 % of control; (dose: 400.0 mg/kg/injection, schedule: Q04DX002 (ip), vehicle: saline with Tween-80) 106 % of control.
On to `Cn1c(=O)c2c(=S)sc(=S)[nH]c2n(C)c1=O`, for which the T/C reads like this: (dose: 25.0 mg/kg/injection, schedule: Q04DX002 (ip), vehicle: saline with Tween-80) 106 % of control; (dose: 50.0 mg/kg/injection, schedule: Q04DX002 (ip), vehicle: saline with Tween-80) 106 % of control; under setting [6], 106 % of control.
As to `O=C1C(c2ccccc2)=S=C2Sc3ccccc3N12`, the T/C is 105 % of control under setting [7], 102 % of control under setting [8] and 95 % of control under setting [9].
On to `COc1ccc(OC)c(NC(=O)SC(C)C)c1`, for which the T/C is, setting by setting: under setting [1], 93 % of control; under setting [2], 96 % of control; under setting [3], 92 % of control.
Take `O=C(O)c1ccc(N2C(=O)C3C4CCC(O4)C3C2=O)cc1` (centres undefined): the T/C was 101 % of control (dose: 6.25 mg/kg/injection, schedule: Q01DX005 (ip), vehicle: saline with Tween-80) and 101 % of control under setting [10].
For the molecule `O=C(O)C(Cc1ccc(O)cc1)NC(=O)C(F)(F)F` (centres undefined), the T/C runs as follows: under setting [7], 98 % of control and 100 % of control; under setting [8], 93 % of control; under setting [9], 90 % of control.
For `COc1cc(O)c(C(c2ccccc2)c2c(O)c(C)c(O)c3c2OC(c2ccccc2)CC3=O)c(O)c1C` (centres undefined), the T/C is 99 % of control (dose: 5.0 mg/kg/injection, schedule: Q01DX009 (ip), vehicle: Klucel (hydroxypropylcellulose) (HPC)); 99 % of control (dose: 10.0 mg/kg/injection, schedule: Q01DX009 (ip), vehicle: Klucel (hydroxypropylcellulose) (HPC)); 103 % of control (dose: 20.0 mg/kg/injection, schedule: Q01DX009 (ip), vehicle: Klucel (hydroxypropylcellulose) (HPC)); 99 % of control (dose: 40.0 mg/kg/injection, schedule: Q01DX009 (ip), vehicle: Klucel (hydroxypropylcellulose) (HPC)).
Regarding `Cc1ccccc1-n1c(=S)n(-c2ccccn2)c2nc3ccccc3nc1/c2=N/Nc1ccccn1`, the T/C under setting [11] is 110 % of control and the T/C under setting [12] is 97 % of control.
For the molecule `O=C(O)CNc1ccccc1.[Cu+2]`, the T/C (dose: 6.25 mg/kg/injection, schedule: Q01DX001 (ip), vehicle: Klucel (hydroxypropylcellulose) (HPC)) is 98 % of control; the T/C (dose: 12.5 mg/kg/injection, schedule: Q01DX001 (ip), vehicle: Klucel (hydroxypropylcellulose) (HPC)) was 98 % of control; the T/C (dose: 25.0 mg/kg/injection, schedule: Q01DX001 (ip), vehicle: Klucel (hydroxypropylcellulose) (HPC)) was 101 % of control and 112 % of control.
As for `CCCCCCCCCCCC(CCCC)CCCCCCCCCC` (centres undefined), the T/C is 100 % of control (dose: 50.0 mg/kg/injection, schedule: Q01DX001 (ip), vehicle: saline sonified); 104 % of control (dose: 100.0 mg/kg/injection, schedule: Q01DX001 (ip), vehicle: saline sonified); 100 % of control (dose: 200.0 mg/kg/injection, schedule: Q01DX001 (ip), vehicle: saline sonified).
Take `CCOC(=O)c1ccc(N2N=C3C(=CC(=O)c4ccccc43)SCC2=O)cc1`: the T/C was 112 % of control under setting [10]; 117 % of control (dose: 25.0 mg/kg/injection, schedule: Q01DX005 (ip), vehicle: saline with Tween-80); 116 % of control under setting [11].
Regarding `Cn1c(N)c(C(=O)/C=C/c2ccccc2)c(=O)[nH]c1=O`, the T/C by setting is: under setting [13], 95 % of control; under setting [14], 88 % of control; under setting [15], 88 % of control.
Regarding `CC1CN1S(=O)(=O)N1CC1C` (centres undefined), the T/C (dose: 11.0 mg/kg/injection, schedule: Q04DX003 (ip), vehicle: saline with Tween-80) was 110 % of control; the T/C (dose: 16.5 mg/kg/injection, schedule: Q04DX003 (ip), vehicle: saline with Tween-80) was 155 % of control; the T/C (dose: 20.0 mg/kg/injection, schedule: Q01DX009 (ip), vehicle: saline with Tween-80) is 209 % of control; the T/C (dose: 25.0 mg/kg/injection, schedule: Q04DX003 (ip), vehicle: saline with Tween-80) is 195 % of control; the T/C (dose: 37.5 mg/kg/injection, schedule: Q04DX003 (ip), vehicle: saline with Tween-80) is 270 % of control; the T/C (dose: 40.0 mg/kg/injection, schedule: Q01DX009 (ip), vehicle: saline with Tween-80) is 172 % of control.
With `CCNC(=S)NN`, the T/C (dose: 3.13 mg/kg/injection, schedule: Q01DX009 (ip), vehicle: saline) was 106 % of control; the T/C under setting [4] is 114 % of control; the T/C under setting [5] is 105 % of control.
As for `S=C1N(c2ccc(Cl)cc2)C2=C(N=Nc3ccccc3)C(=Nc3ccccc3S2)N1c1ccccn1`, the T/C reads like this: under setting [11], 109 % of control; under setting [12], 108 % of control.
On to `COc1cc(/C=C/c2ccc(OC)c(O)c2)cc(OC)c1`, for which the T/C is, setting by setting: (dose: 6.25 mg/kg/injection, schedule: Q01DX005 (ip), vehicle: Klucel (hydroxypropylcellulose) (HPC)) 108 % of control; (dose: 12.5 mg/kg/injection, schedule: Q01DX005 (ip), vehicle: Klucel (hydroxypropylcellulose) (HPC)) 103 % of control; (dose: 25.0 mg/kg/injection, schedule: Q01DX005 (ip), vehicle: Klucel (hydroxypropylcellulose) (HPC)) 99 % of control; under setting [13], 119 % of control and 94 % of control; under setting [14], 98 % of control; under setting [15], 94 % of control.
